Values joined by “and” are separate entries in the source; they are usually repeats but may differ in a detail not shown here. Identical values can stand only once. Non-standard residues stand in square brackets, D forms with d. Residues, ends and D or L forms follow the SMILES beside them. *: point of attachment. Benzoyl(4-tBu) = CC(C)(C)c1ccc(C(=O)*)cc1; Lys(Et2) = CCN(CC)CCCC[C@H](N)C(=O)O
How the values were obtained:
Peregrin (Homo sapiens) = target: T1, Peregrin (Homo sapiens) (UniProt P55201); settings: Compound concentration 20.0 uM
T1 sequence (whole entry): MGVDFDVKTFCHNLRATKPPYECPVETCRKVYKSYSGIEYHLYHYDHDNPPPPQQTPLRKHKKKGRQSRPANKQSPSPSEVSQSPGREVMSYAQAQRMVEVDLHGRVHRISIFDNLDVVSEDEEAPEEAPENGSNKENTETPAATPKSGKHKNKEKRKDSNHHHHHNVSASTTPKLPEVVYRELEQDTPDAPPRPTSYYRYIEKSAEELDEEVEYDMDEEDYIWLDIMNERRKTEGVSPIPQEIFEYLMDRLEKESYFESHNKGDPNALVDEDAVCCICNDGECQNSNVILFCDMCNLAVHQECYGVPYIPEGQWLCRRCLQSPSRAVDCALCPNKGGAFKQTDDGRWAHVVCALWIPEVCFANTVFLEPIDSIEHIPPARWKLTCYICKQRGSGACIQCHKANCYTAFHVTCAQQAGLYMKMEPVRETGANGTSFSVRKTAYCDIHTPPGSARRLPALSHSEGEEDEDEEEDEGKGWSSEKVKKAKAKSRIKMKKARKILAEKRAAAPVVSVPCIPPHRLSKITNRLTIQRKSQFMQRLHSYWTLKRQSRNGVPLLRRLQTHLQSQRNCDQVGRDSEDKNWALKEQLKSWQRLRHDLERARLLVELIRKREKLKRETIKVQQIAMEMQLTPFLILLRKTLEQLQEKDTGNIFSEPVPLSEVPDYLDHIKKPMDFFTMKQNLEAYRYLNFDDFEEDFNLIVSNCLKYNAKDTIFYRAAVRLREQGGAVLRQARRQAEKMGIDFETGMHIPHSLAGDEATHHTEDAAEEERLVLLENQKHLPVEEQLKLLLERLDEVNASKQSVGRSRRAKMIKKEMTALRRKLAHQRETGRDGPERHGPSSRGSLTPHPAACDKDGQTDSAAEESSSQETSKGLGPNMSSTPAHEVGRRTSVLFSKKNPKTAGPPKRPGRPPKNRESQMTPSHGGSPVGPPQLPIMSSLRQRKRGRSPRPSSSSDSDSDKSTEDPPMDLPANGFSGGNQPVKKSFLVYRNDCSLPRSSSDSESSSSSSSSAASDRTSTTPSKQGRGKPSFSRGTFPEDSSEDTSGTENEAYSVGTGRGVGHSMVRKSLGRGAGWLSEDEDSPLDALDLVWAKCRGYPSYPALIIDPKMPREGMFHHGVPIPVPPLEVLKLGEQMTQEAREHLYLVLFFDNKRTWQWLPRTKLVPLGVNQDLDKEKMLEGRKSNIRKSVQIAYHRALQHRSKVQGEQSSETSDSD

[1] = target: Fibroblast growth factor receptor 2 (Homo sapiens) (UniProt P21802); settings: Compound concentration 20.0 uM
Fibroblast growth factor receptor 2 (Homo sapiens), sequence (P21802 22-821 limits assumed): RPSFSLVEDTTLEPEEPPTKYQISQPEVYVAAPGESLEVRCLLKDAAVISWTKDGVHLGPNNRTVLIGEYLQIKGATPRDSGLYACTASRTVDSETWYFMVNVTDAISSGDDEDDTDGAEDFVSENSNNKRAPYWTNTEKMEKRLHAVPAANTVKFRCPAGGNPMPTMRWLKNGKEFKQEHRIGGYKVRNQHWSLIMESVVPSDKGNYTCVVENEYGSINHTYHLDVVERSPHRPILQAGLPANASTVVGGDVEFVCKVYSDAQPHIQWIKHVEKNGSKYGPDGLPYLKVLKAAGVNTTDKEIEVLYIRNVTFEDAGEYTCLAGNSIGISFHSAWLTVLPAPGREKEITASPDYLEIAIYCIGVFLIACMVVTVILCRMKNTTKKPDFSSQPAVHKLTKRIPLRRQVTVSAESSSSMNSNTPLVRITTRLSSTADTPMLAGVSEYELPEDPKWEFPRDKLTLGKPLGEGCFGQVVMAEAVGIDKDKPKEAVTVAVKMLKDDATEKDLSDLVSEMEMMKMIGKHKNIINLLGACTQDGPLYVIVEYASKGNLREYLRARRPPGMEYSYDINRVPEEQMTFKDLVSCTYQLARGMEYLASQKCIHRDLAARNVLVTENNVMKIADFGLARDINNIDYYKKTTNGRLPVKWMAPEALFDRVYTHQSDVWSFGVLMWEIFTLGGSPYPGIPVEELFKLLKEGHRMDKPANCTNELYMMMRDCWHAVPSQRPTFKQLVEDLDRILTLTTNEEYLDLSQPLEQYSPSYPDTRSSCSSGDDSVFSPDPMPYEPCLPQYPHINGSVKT
Description: Thermal Shift Assay. Domain: start/stop: T457-E768

Row | SMILES | ΔTm (Peregrin (Homo sapiens)) | ΔTm [1]
1 | CCN(CC)CCCC[C@H](NC(=O)[C@H](CC(C)C)NC(=O)[C@H](C)NC(=O)[C@H](Cc1ccccc1)NC(=O)c1ccc(C(C)(C)C)cc1)C(=O)N[C@@H](CO)C(=O)OC ({Benzoyl(4-tBu)}-FAL[Lys(Et2)]S-OMe) | -1.51 °C | 0.43 °C
2 | CC(C)(C)OC(=O)N1CCN(C(=O)n2cc(-c3ccc(OC(F)(F)F)cc3)nn2)C(Cc2ccccc2)C1 (configuration not stated) | 0.21 °C | -0.77 °C
3 | CS(=O)(=O)c1ccc(Oc2cc(F)cc(C#N)c2)c2c1C(O)C(F)C2 (configuration not stated) | 0.86 °C | -0.57 °C
4 | CC(C)[C@@H]1C(=O)N(S(C)(=O)=O)[C@@H]2CCN(C(=O)/C=C/CN3CCCCC3)[C@H]21 | -1.67 °C | 0.49 °C
5 | Nc1nc2cc(CC[C@H]3C[C@@H](n4ccc5c(N)ncnc54)[C@H](O)[C@@H]3O)ccc2cc1Br | -0.14 °C | -5.18 °C
6 | O=C1c2ccccc2C(=O)c2oc(-c3ccccc3)nc21 | 1.63 °C | -1.3 °C
7 | Fc1ccc(C(OCCN2CCN(CCCc3ccccc3)CC2)c2ccc(F)cc2)cc1 | 0.78 °C | -0.47 °C
8 | CNCCC(Oc1ccccc1OC)c1ccccc1 (configuration not stated) | 1.17 °C | 0.13 °C
9 | CN(CCCN1c2ccccc2CCc2ccccc21)CC(=O)c1ccc(Cl)cc1 | -0.12 °C | 0.53 °C
10 | O=C1/C(=N/Nc2ccc(S(=O)(=O)O)cc2)C(c2ccc([N+](=O)[O-])cc2)=NN1c1ccccc1 | 0.37 °C | 0.4 °C
11 | O=C1c2ccccc2C(=O)c2oc(-c3cccnc3)nc21 | 2.45 °C | -0.95 °C
12 | N#Cc1ccc(-c2c3n(c4cccnc24)CCN(C2CC2)C3=O)cc1F | -0.31 °C | -0.59 °C
13 | O=C(C=Cc1ccc(O)cc1)c1ccc(O)cc1O | 0.82 °C | 1.26 °C
14 | C=CCn1c(N[C@@H]2C[C@H](c3ccc(OCc4ccccc4)cc3)CN(C)C2)nc2cc[nH]c2c1=O | 3.96 °C | 0.37 °C
15 | CC(=O)C(=Cc1cc(O)c(O)c([N+](=O)[O-])c1)C(C)=O | 0.33 °C | -0.23 °C
16 | C[C@H](N)C(=O)N1C[C@H](CCCB(O)O)[C@](N)(C(=O)O)C1 | -0.07 °C | 0.25 °C
17 | FC(F)(F)Oc1ccc(Oc2ccnc(N3CCC(NC(=S)Nc4cccnc4)CC3)c2Cl)c(Cl)c1 | 0.92 °C and 3.5 °C | -3.46 °C and 0.73 °C
18 | O=[N+]([O-])c1cc(O)c(O)c([N+](=O)[O-])c1 | 2.24 °C | 0.52 °C
19 | Nc1cccc(Nc2ncc(-c3ccc(Cl)cc3)o2)c1 | 4.7 °C | 2.1 °C
20 | CCCCCCCC(=O)N[C@H](CN1CCCC1)[C@H](O)c1ccc2c(c1)OCCO2 | 1.02 °C | 0.38 °C
21 | CC1=NN(c2ccc(C(=O)O)cc2)C(=O)/C1=C/c1ccc(-c2cc(C)c(C)cc2[N+](=O)[O-])o1 | -1.58 °C | 0.86 °C

Row | SMILES | ΔTm (Peregrin (Homo sapiens)) | ΔTm [1]
22 | CC(C)(C)C1CCN(C(=O)n2ncc(C(O)(c3ccccc3)c3ccccc3)n2)CC1 | -4.31 °C | -3.22 °C
23 | O=C(c1cccc(-c2ccc(-c3cn(C(=O)N4CCCCC4c4ccccc4)nn3)cc2)c1)N1CCCCC1 (configuration not stated) | 3.63 °C | 2.55 °C
24 | Cc1cc(C)nc(SCC(=O)Nc2ncc(Cc3cccc4ccccc34)s2)n1 | 3 °C | -1.85 °C
25 | O=C(O)CCNc1cc(N2CCc3ccccc3CC2)nc(-c2ccccn2)n1 | 0.6 °C | 0.4 °C
26 | O=C1Cc2cc(C(=O)N[C@@H]3C[C@H]4CC[C@@H](C3)N4S(=O)(=O)CC3CCN(CCCC(F)(F)F)CC3)c(Cl)cc2N1 | -0.66 °C | -0.16 °C
27 | CN1Cc2c(Cl)cc(Cl)cc2[C@H](c2cccc(S(=O)(=O)NCCOCCOCCNC(=O)NCCCCNC(=O)NCCOCCOCCNS(=O)(=O)c3cccc([C@@H]4CN(C)Cc5c(Cl)cc(Cl)cc54)c3)c2)C1 | 0.43 °C | -0.42 °C
28 | C[C@@H]1CN(c2ncc(Cl)c(Nc3ccc4c(c3)n(CCC(C)(C)O)c(=O)n4C)n2)C[C@H](C)C1(F)F | -5.71 °C | -3.16 °C
29 | Cc1cc(C)c(CNC(=O)c2cc(Cl)c3c(c2C)O[C@@](C)([C@H]2CC[C@H](N(C)C)CC2)O3)c(=O)[nH]1 | -0.71 °C | -1.83 °C
30 | COc1cc(C(=O)N2C[C@H](N)CC[C@@H]2C)cc2nc(-c3cc4cccnc4n3CC3CC3)n(C)c12 | 0.21 °C | 0.33 °C
31 | O=C(O)C1=CCCN(CCON=C(c2ccccc2)c2ccccc2)C1 | 0.57 °C | 0.48 °C
32 | COc1nc(Nc2cc(S(C)(=O)=O)ccc2N[C@@H](c2cccc3c2OC(F)(F)O3)c2ncccc2Cl)nc(N2CCNCC2)n1 | 0 °C | -8.88 °C
33 | CC(C)Cc1nn(C)c(=O)c2c(SCCCO)n(Cc3cccc4ccccc34)cc12 | -2.75 °C and -3.63 °C | 0.03 °C and -0.58 °C
34 | CCOC(=O)NCCCC(=O)NCCc1ccccc1 | -0.92 °C | 0.51 °C
35 | O=C(N1CCCC[C@@H]1Cc1ccccc1)n1cc(-c2ccc(-c3ccccc3)cc2)nn1 | 0.6 °C | 0 °C
36 | Cc1nc2ccccn2c1C(=O)CN1CCN(c2ccc(F)cn2)CC1 | 0.49 °C | -0.08 °C
37 | O=C(NCC1CCOCC1)c1n[nH]cc1NC(=O)c1c(F)cccc1F | -1.34 °C | 0.69 °C
38 | N#Cc1ccc(Nc2cnccc2SCc2ccccc2C(=O)O)c2ccccc12 | 1.8 °C | 0.49 °C
39 | Cc1nn2c(nc(O)c3cccnc32)c1C#N | 0.03 °C | -0.24 °C
40 | Nc1nc(C(F)(F)F)nc2c1nnn2C[C@H]1CN(Cc2nccs2)CCO1 | 1.22 °C | 0.48 °C
41 | N=C(N)SCc1ccc(CN2C(=O)C(=O)c3cc(Br)cc(Br)c32)cc1 | -6.38 °C | -6.45 °C
42 | COc1ccc(-c2ccc3c(c2)COC3=O)n2nc(C3(C(=O)OCC(C)C)CC3)nc12 | 0.76 °C | 0.71 °C

Row | SMILES | ΔTm (Peregrin (Homo sapiens)) | ΔTm [1]
43 | O=C(O)/C(S)=C/c1c[nH]c2ccc(F)cc12 | -0.77 °C | 0.66 °C
44 | CCn1nc(C2CC2)cc1Nc1nc(C(=O)NC)nc2[nH]c3cc(-c4c(C)noc4C)c(OC)cc3c12 | 0.68 °C | -0.1 °C
45 | Cc1[nH]c2c(N3CCCCC3)c(-c3ccccc3)nn2c(=O)c1-c1ccc(O)cc1 | -0.91 °C | 0.5 °C
46 | CNC(=O)Cn1cc(-c2ccc3c(c2)[C@H](F)C[C@]32NC(=O)N(CC(=O)N(Cc3ccc(F)cc3)[C@@H](C)C(F)(F)F)C2=O)cn1 | -0.07 °C | -0.18 °C
47 | C[C@H](CN[C@@H](C(=O)Nc1ccc(-c2cnn(C)c2)cn1)c1ccccc1)c1ccc(C#N)cc1 | -3.43 °C | 0.96 °C
48 | Cc1ccc(F)c2cc(C(=O)N[C@@H]3CCC[C@H](N4CC[C@H](N(C)S(C)(=O)=O)C4)C3)[nH]c12 | -0.28 °C | -0.4 °C
49 | COc1cc(Cl)ccc1C1=CN(c2ccc(-c3ccccc3OC)cc2)C2=NCCCN12 | -0.95 °C | -1.01 °C
50 | CCCCCCCCCCCCC/C=C/[C@@H](O)[C@H](CO)NC(=O)CBr | -2.74 °C | -18.9 °C
51 | CC#CCn1c(N2CCC[C@@H](N)C2)nc2c1c(=O)n(Cc1nc(C)c3ccccc3n1)c(=O)n2C | 0.04 °C | 0.28 °C
52 | COc1ccccc1[C@H]1[C@H](C(=O)O)[C@H](c2ccccc2OC)[C@H]1C(=O)Oc1cccc2ccccc12 | 0.27 °C | -0.72 °C
53 | Cc1ncc(Cl)cc1NCc1ccc(C(=O)N[C@@H](CC2CCCC2)C(=O)NC2CC2)s1 | -0.65 °C | 1.09 °C
54 | COCCOCCn1nc2c(c1C)-c1c(Cl)ccc3c1c(C)c(C(=O)O)n3CCCOc1cc(cc3c(F)c(Cl)ccc13)CCc1cc(nn1C)CSC2 | 0 °C | -5.22 °C
55 | Oc1ccc(-c2c(-c3ccccc3)nn3c(C(F)(F)F)cc(C(F)(F)F)nc23)cc1 | -1.38 °C | 1.15 °C
56 | CC(C)(O)c1ccc(N2Cc3c(ccnc3-c3ccc(F)cc3OCC(F)(F)F)C2=O)cc1 | -1.27 °C | -4.87 °C
57 | CC(C)C(=O)SCCCCCCC(=O)Nc1nc(-c2ccccc2)cs1 | -1.14 °C | 1.03 °C
58 | Cc1ccc([N+](=O)[O-])cc1S(=O)(=O)N(C)C | 2.57 °C | -0.67 °C
59 | COc1ccc([C@@H]2CNC(=O)C2)cc1OC1CCCC1 | 0.39 °C | -0.37 °C
60 | N#Cc1c(N)[nH]c2cc(/C=C/c3cccc(F)c3)ccc12 | 6.38 °C | 1.59 °C
61 | COc1ccccc1S(=O)(=O)Nc1ccc2c(c1)CN(C)C(=O)N2 | 1.9 °C | -0.59 °C
